{"source": "patent US6465489B1", "about": "“Ureidopiperidine derivatives as selective human NK3 receptor antagonists” (Sanofi-Synthelabo, priority 1998, dated 2002)", "system": "bronchitic and cough response induced by citric acid", "test": "Bronchitic and cough response induced by citric acid in guinea pigs", "assay_type": "in vivo, guinea pig", "details": "compared with osanetant", "excerpt": "In guinea pigs, the effect on the bronchitic and cough response induced by citric acid has been studied using the model described by S. Daoui et al., in Am. J. Resp. Crit. Care Med., 1998, 158, 42-48. In this test, the Example 10 compound has shown an activity 10 times greater than that of osanetant."}
{"smiles": "CN(C)C(=O)NC1(c2ccccc2)CCN(CCCC2(c3ccc(Cl)c(Cl)c3)CCCN(C(=O)c3ccccc3)C2)CC1", "note": "(stereo not shown) [Example 10]", "values": [{"measurement": "activity relative to osanetant", "value": 10, "unit": "times"}]}
